This note sets out measurements from patent publication US5470830A, “Motilin-like polypeptides that inhibit gastrointestinal motor activity” (Ohmeda Pharmaceutical Products Division Inc., priority 1993, dated 1995).

Read-outs that look alike come from different tables or passages of the source. Where a SMILES comes first, the peptide text is derived from it. Where no end group is shown, it is not given here. [ ]: non-standard residue; d: D form. 2Nal = N[C@@H](Cc1ccc2ccccc2c1)C(=O)O; Cha = N[C@@H](CC1CCCCC1)C(=O)O

The target of assay [1] is segments of rabbit duodenum (Oryctolagus cuniculus, UniProt G1T803). Briefly: Rabbit duodenal smooth muscle strip tissue bath assay (contractile response). It is filed as cell-based. The note with it: contractility; negative logarithm of dose giving 50% of maximal response to motilin; compounds tested 10^-11 to 10^-4 M. On the procedure:
The experimental protocol consisted of an equilibration period of 1 hour: a challenge with 10^-4 M acetylcholine followed by a wash-out period; a cumulative dose-response curve of a compound with, at the end, the addition of 10^-7 M motilin; and finally 10^-4 M acetylcholine. If the final response to 10^-4 M acetylcholine differed by more than 5% from the initial response, the results were discarded.

In assay [2] the target is T1, motilin receptor (rabbit antral smooth muscle membranes) (Oryctolagus cuniculus, UniProt G1T803).
T1 construct: from tissue; host or cells: rabbit antral smooth muscle membranes
Briefly: Motilin receptor binding affinity: displacement of [125I-Tyr7,Nle13]motilin(porcine). As to the method: The motilin receptor binding affinity of the peptides of this invention was determined by using the general procedure of Bormans, Peelers and Vantrappen, Regul. Pept., 15, 143-153 (1986). The ability of the peptides to displace [^125 I-Tyr^7,Nle^13 ]motilin(porcine) bound to rabbit antral smooth muscle membranes, was determined by testing twice, each time in duplicate, at concentrations ranging from 10^-11 to 10^-4 M. The concentration displacing 50% of the label (IC50) was determined by fitting the data to the equation describing displacement, assuming a single class of motilin receptors to which labeled and non-labeled motilin bind with equal affinity and non-cooperatively. Fitting was performed using the iterative least-squares procedure of the SAS-software package (SAS Institute, Inc., Cary, N.C., U.S.A.). […] The concentration displacing 50% of the label is expressed using its negative logarithm (pIC50).

A further assay addresses T2, motilin receptor (Oryctolagus cuniculus, UniProt G1T803).
T2 construct: segments of rabbit duodenum; from tissue; host or cells: segments of rabbit duodenum
Description: Motilin receptor antagonism: contractile response of rabbit duodenum to motilin in presence of compound. The assay is classed as cell-based. As to the method: To determine motilin receptor antagonism, the contractile response of segments of rabbit duodenum to motilin was determined isotonically in the tissue bath in the presence of a fixed concentration of the compound of interest. The experimental protocol consisted of an equilibration period of 1 hour; a challenge with 10^-4 M acetylcholine followed by a wash-out period; a cumulative motilin dose-response curve in the presence of the motilin receptor antagonist; and finally a challenge with 10^-4 M acetylcholine. If the final response to 10^-4 M acetylcholine differed by more than 5% from the initial response, the results were discarded. The point corresponding to 50% of the maximal response to motilin (Emax) was determined by fitting the equation
through the data points. The dose of motilin giving 50% of the response is expressed using its negative logarithm (pEC50). Compounds of interest were tested at concentrations of 10^-8 to 10^-5 M.

Where [3] appears, read: negative logarithm of concentration displacing 50% of [125I-Tyr7,Nle13]motilin(porcine) from rabbit antral smooth muscle membranes, read-out: pIC50 (converted).

T1 sequence (G1T803 1-400): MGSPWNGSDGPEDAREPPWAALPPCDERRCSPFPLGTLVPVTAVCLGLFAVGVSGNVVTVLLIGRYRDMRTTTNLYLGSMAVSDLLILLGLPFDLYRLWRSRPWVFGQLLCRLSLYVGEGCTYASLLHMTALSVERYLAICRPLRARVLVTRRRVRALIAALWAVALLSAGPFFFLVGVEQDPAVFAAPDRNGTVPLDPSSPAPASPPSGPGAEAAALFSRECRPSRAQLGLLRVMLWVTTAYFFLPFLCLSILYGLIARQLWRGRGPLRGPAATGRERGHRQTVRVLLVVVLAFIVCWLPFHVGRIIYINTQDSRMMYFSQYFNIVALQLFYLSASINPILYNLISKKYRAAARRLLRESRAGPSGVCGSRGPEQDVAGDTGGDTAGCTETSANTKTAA
Chain of segments of rabbit duodenum (G1T803 1-400): as above
T2 sequence (G1T803 1-400): as above

As to “H-FVFIFTYGELQRLQ-OH [[Phe^3, Leu^13]pMOT(1-14), H-Phe-Val-Phe-Ile-Phe-Thr-Tyr-Gly-Glu-Leu-Gln-Arg-Leu-Gln-OH]”, the pEC50 in assay [1] is listed as < 4.5. Further, the IC50 in assay [2] (setting [3]) is 0.0162 µM. On motilin receptor (compound at 10^-5 M), the “block of the full contractile response to motilin” value is “completely blocked”. Further, the “shift of the dose-response curve of motilin” value on motilin receptor (compound at 10^-6 M) is “shifted by about one log unit”.

Consider `CC[C@H](C)[C@H](NC(=O)[C@H](Cc1ccc2ccccc2c1)NC(=O)[C@@H](NC(=O)[C@@H](N)Cc1ccccc1)C(C)C)C(=O)N[C@@H](Cc1ccccc1)C(=O)N[C@H](C(=O)N[C@@H](Cc1ccc(O)cc1)C(=O)NCC(=O)N[C@@H](CCC(=O)O)C(=O)N[C@@H](CC(C)C)C(=O)N[C@@H](CCC(N)=O)C(=O)N[C@@H](CCCNC(=N)N)C(=O)N[C@@H](CC(C)C)C(=O)N[C@@H](CCC(N)=O)C(=O)O)[C@@H](C)O` [[2-Nal^3, Leu^13]pMOT(1-14), H-Phe-Val-2-Nal-Ile-Phe-Thr-Tyr-Gly-Glu-Leu-Gln-Arg-Leu-Gln-OH] (H-FV[2Nal]IFTYGELQRLQ-OH), for which the pEC50 in assay [1] was < 4.5. Moreover, the IC50 in assay [2] (setting [3]) is 0.0275 µM.

Turning to “FVFIFTYGELQR-NH2 [[Phe^3 pMOT(1-12) amide, [3-Phenylalanine]motilin-(1-12)-peptide Amide (Porcine), Bis-trifluoroacetate Salt]”, the negative-log EC50 (pEC50) in assay [1] is listed as < 4.5. For the same compound, the IC50 in assay [2] (setting [3]) was 0.0275 µM.

Regarding “FVFIFTYGELQRLQEKERNKGQ [[Phe^3,Leu^13]pMOT, [3-Phenylalanine, 13-leucine]motilin (Porcine), Pentakis-trifluoroacetate Salt]”, the pEC50 in assay [1] is listed as < 4.5. The compound also had an IC50 in assay [2] of 0.000776 µM.

For the compound `CC[C@H](C)[C@H](NC(=O)[C@H](Cc1ccccc1)NC(=O)[C@@H](NC(=O)[C@@H](N)Cc1ccccc1)C(C)C)C(=O)N[C@@H](Cc1ccccc1)C(=O)N[C@H](C(=O)N[C@@H](Cc1ccc(O)cc1)C(=O)NCC(=O)N[C@@H](CCC(=O)O)C(=O)N[C@@H](CC(C)C)C(=O)N[C@@H](CCC(N)=O)C(=O)N[C@H](CCCNC(=N)N)C(=O)N[C@@H](CC(C)C)C(=O)N[C@@H](CCC(N)=O)C(=O)O)[C@@H](C)O` [[Phe^3, D-Arg^12, Leu^13]pMOT(1-14)] (H-FVFIFTYGELQ[dR]LQ-OH), in assay [1], the pEC50 is given as < 4.5. In addition, in assay [2] (setting [3]), the IC50 is 0.0813 µM.

Turning to `CC[C@H](C)[C@H](NC(=O)[C@H](Cc1ccccc1)NC(=O)[C@@H](NC(=O)[C@@H](N)Cc1ccccc1)C(C)C)C(=O)N[C@@H](CC1CCCCC1)C(=O)N[C@H](C(=O)N[C@@H](Cc1ccc(O)cc1)C(=O)NCC(=O)N[C@@H](CCC(=O)O)C(=O)N[C@@H](CC(C)C)C(=O)N[C@@H](CCC(N)=O)C(=O)N[C@@H](CCCNC(=N)N)C(=O)N[C@@H](CC(C)C)C(=O)N[C@@H](CCC(N)=O)C(=O)O)[C@@H](C)O` [[Phe^3, Cha^5, Leu^13]pMOT(1-14), H-Phe-Val-Phe-Ile-Cha-Thr-Tyr-Gly-Glu-Leu-Gln-Arg-Leu-Gln-OH] (H-FVFI[Cha]TYGELQRLQ-OH), the pEC50 in assay [1] is on record as < 4.5. In addition, in assay [2] (setting [3]), the IC50 was 0.0251 µM.
